Assay results published in the supplement of paper PMC10307832.

Tests used:
Assay in all cases: relative viability (nuclei count vs DMSO), 5 days (fraction); higher = more cells survive
MK-2206 + Tozasertib = compound: NC1(c2ccc(-c3nc4ccn5c(=O)[nH]nc5c4cc3-c3ccccc3)cc2)CCC1 [MK-2206] + Cc1cc(Nc2cc(N3CCN(C)CC3)nc(Sc3ccc(NC(=O)C4CC4)cc3)n2)n[nH]1 [Tozasertib] (partner 0.1 µM)
How it was run: (§1)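 Cells from lung cancer lines were seeded into 1536-well plates and, one day later, dosed by pin tool. Treatments were either a single drug or a fixed dose of an anchor drug with five library-drug doses (not always all listed) in √10 steps. After 5 days, nuclei were stained in a one-step fixation (final 0.05% Triton X-100, 1% formaldehyde, 1 ug/ml Hoechst) and counted on 4× images, and relative viability is the treated-to-vehicle nuclei ratio, as the median of duplicate plates.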

MK-2206 + Pictilisib = compound: NC1(c2ccc(-c3nc4ccn5c(=O)[nH]nc5c4cc3-c3ccccc3)cc2)CCC1 [MK-2206] + CS(=O)(=O)N1CCN(Cc2cc3nc(-c4cccc5[nH]ncc45)nc(N4CCOCC4)c3s2)CC1 [Pictilisib] (partner 1 µM)
How it was run: as §1

Pictilisib + Lapatinib = compound: CS(=O)(=O)N1CCN(Cc2cc3nc(-c4cccc5[nH]ncc45)nc(N4CCOCC4)c3s2)CC1 [Pictilisib] + CS(=O)(=O)CCNCc1ccc(-c2ccc3ncnc(Nc4ccc(OCc5cccc(F)c5)c(Cl)c4)c3c2)o1 [Lapatinib] (partner 2 µM)
How it was run: as §1

Pictilisib + Olaparib = compound: CS(=O)(=O)N1CCN(Cc2cc3nc(-c4cccc5[nH]ncc45)nc(N4CCOCC4)c3s2)CC1 [Pictilisib] + O=C(c1cc(Cc2n[nH]c(=O)c3ccccc23)ccc1F)N1CCN(C(=O)C2CC2)CC1 [Olaparib] (partner 8 µM)
How it was run: as §1

Pictilisib + Tozasertib = compound: CS(=O)(=O)N1CCN(Cc2cc3nc(-c4cccc5[nH]ncc45)nc(N4CCOCC4)c3s2)CC1 [Pictilisib] + Cc1cc(Nc2cc(N3CCN(C)CC3)nc(Sc3ccc(NC(=O)C4CC4)cc3)n2)n[nH]1 [Tozasertib] (partner 0.1 µM)
How it was run: as §1

Cell Line	relative viability (MK-2206 + Tozasertib; first compound 0.01 µM)	relative viability (MK-2206 + Tozasertib; first compound 0.03162 µM)	relative viability (MK-2206 + Tozasertib; first compound 0.3162 µM)	relative viability (MK-2206 + Tozasertib; first compound 1 µM)	relative viability (MK-2206 + Pictilisib; first compound 0.01 µM)	relative viability (MK-2206 + Pictilisib; first compound 0.03162 µM)	relative viability (MK-2206 + Pictilisib; first compound 1 µM)	relative viability (Pictilisib + Lapatinib; first compound 0.02 µM)	relative viability (Pictilisib + Lapatinib; first compound 0.06325 µM)	relative viability (Pictilisib + Lapatinib; first compound 0.6325 µM)	relative viability (Pictilisib + Lapatinib; first compound 2 µM)	relative viability (Pictilisib + Olaparib; first compound 0.02 µM)	relative viability (Pictilisib + Olaparib; first compound 0.06325 µM)	relative viability (Pictilisib + Olaparib; first compound 0.6325 µM)	relative viability (Pictilisib + Olaparib; first compound 2 µM)	relative viability (Pictilisib + Tozasertib; first compound 0.02 µM)	relative viability (Pictilisib + Tozasertib; first compound 0.06325 µM)	relative viability (Pictilisib + Tozasertib; first compound 0.6325 µM)	relative viability (Pictilisib + Tozasertib; first compound 2 µM)	relative viability (MK-2206 + Pictilisib; first compound 0.3162 µM)
EPLC-272H	0.292	0.378	0.344	0.246	0.292	0.333	0.336	1.03	1.09	0.658	0.513	0.773	0.731	0.36	0.241	0.26	0.231	0.206	0.179	–
LK-2	0.174	0.165	0.186	0.168	0.684	0.707	0.667	0.947	1	0.618	0.405	0.523	0.588	0.485	0.304	0.209	0.173	0.154	0.158	0.583
CAL-12T	0.289	0.304	0.317	0.327	0.58	0.455	0.229	0.6	0.638	0.653	0.468	0.761	0.785	0.754	0.523	0.296	0.314	0.277	0.17	0.465
NCI-H322M	0.455	0.552	0.449	0.455	0.509	0.529	0.511	0.57	0.588	0.493	0.423	0.76	0.838	0.756	0.525	0.494	0.49	0.4	0.282	0.489
NCI-H1650	0.364	0.377	0.408	0.346	0.549	0.566	0.56	1.02	0.806	0.672	0.51	0.593	0.759	0.761	0.691	0.467	0.401	0.348	0.18	0.476
NCI-H2342	0.608	0.535	0.452	0.402	–	–	–	–	–	–	–	0.446	0.379	0.406	0.242	0.46	0.474	0.409	0.276	–
SW 1573	0.242	0.152	0.175	0.127	0.453	0.548	0.457	1.12	1.28	0.89	0.55	0.512	0.542	0.377	0.22	0.164	0.174	0.146	0.137	0.424
NCI-H2405	0.818	0.799	0.662	0.635	0.418	0.421	0.282	1.2	1.05	0.801	0.505	0.871	0.867	0.735	0.422	0.764	0.725	0.663	0.348	0.361
